{"source": "patent US11725015B2", "about": "“Macrocyclic compound and uses thereof” (President and Fellows of Harvard College, priority 2017, dated 2023)", "format_in_all_cases": "in vivo", "key": {"Tenascin-C": {"tested_on": "Tenascin-C", "assay": "Effect on Tenascin-C in the FaDu subcutaneous model in mice", "details": "Compound (1) 180 μg/kg + CTX 10 mg/kg on Day 1, five days after, compared with control tumors", "method": "A human squamous cell carcinoma of the head and neck (SCCHN) cell line FaDu, which had been cultured in an RPMI-1640 medium containing 10% FBS, and penicillin-streptomycin (culture medium), was adjusted to a concentration of 5×10^7 cells/mL with culture medium to prepare a cell suspension. The cell suspension was inoculated in a volume of 100 μL into a subcutaneous part of a right flank of nude mice, 6 weeks of ages (CAnN.Cg-Foxnlnu/CrlCrlj, female, Charles River Laboratories Japan, Inc.). Ten days after cell inoculation, the mice were grouped such that averages of the tumor volumes were substantially equal among the groups. The experiment was conducted on groups each consisting of 5 mice. Compound (1) was dissolved in DMSO and a solution was stored in the freezer before use. […] Five days after the single administration, tumor samples were collected and fixed with IHC Zinc Fixative (BD Pharmingen) at 4° C. for 24 hr. Paraffin-embedded tissues were sectioned (3 μm), mounted on positively charged slides, and air-dried. Sections were deparaffinized, conditioned and the antigens were retrieved using microwave with 1 mM EDTA at pH 6.0 for Tenascin-C. For EDA-fibronectin, the antigens retrieval procedure was not necessary. […]"}, "[1]": {"tested_on": "MES-SA (human uterine sarcoma) xenograft", "assay": "Antitumor effects in MES-SA soft tissue sarcoma xenograft model in mice as monotherapy", "details": "180 μg/kg intravenously on Day 1 and Day 8", "method": "A human uterine sarcoma cell line MES-SA, which had been cultured in an RPMI-1640 containing 10% FBS, and penicillin-streptomycin, was adjusted to a concentration of 2×10^8 cells/mL with Hanks' Balanced Salt Solution to prepare a cell suspension, and the suspension was mixed with Geltrex® (Thermo Fisher Scientific Inc., #A1413202) in a ratio of 1:1 to prepare a cell suspension in a concentration of 1×10^8 cells/mL. The cell suspension was inoculated in a volume of 100 μL into a subcutaneous part of a right flank of nude mice, 6 weeks of ages (CAnN.Cg-Foxnlnu/CrlCrlj, female, Charles River Laboratories Japan Inc.). Six days after cell inoculation (Day 1), the shortest diameter and the longest diameter of a tumor in each mouse were measured by using an electronic digital caliper (Digimatic™ caliper, Mitutoyo Corporation), so as to calculate the volume of the tumor in accordance with the following calculation formulae: Tumor volume (mm^3)=Longest diameter (mm)×Shortest diameter (mm)×Shortest diameter (mm)/2 Relative tumor volume (RTV)=Tumor volume (day X)/Tumor volume (the first day)\nOn the basis of the volumes of tumors obtained on Day 1, the mice were grouped such that averages of the tumor volumes were substantially equal among the groups. The experiment was conducted on groups each consisting of 6 mice. […]"}, "[2]": {"tested_on": "HCC1806 subcutaneous xenograft", "assay": "Antitumor activity against HCC1806 subcutaneous xenograft model in mice as monotherapy", "details": "0.18 mg/kg intravenously, Q7D×2", "method": "(§1) A human breast cancer cell line HCC1806, which had been cultured in an RPMI-1640 medium containing 10% FBS, and penicillin and streptomycin, was adjusted to a concentration of 1×10^8 cells/mL with PBS to prepare a cell suspension, and the suspension was mixed with Matrigel™ (BD Bioscience, #366237) in a ratio of 1:1 to prepare a cell suspension in a concentration of 5×10^7 cell/mL. The cell suspension was inoculated in a volume of 100 μL into a subcutaneous part of a right flank of nude mice, 5 weeks of ages (CAnN.Cg-Foxnlnu/CrlCrlj, female, Charles River Laboratories Japan, Inc.).\n(§2) On the basis of the volumes of tumors obtained on the first day of administration, the mice were grouped such that averages of the tumor volumes were substantially equal among the groups. The experiment was conducted on groups each consisting of 6 mice. Test compound was dissolved in saline and intravenously administered at 0.18 mg/kg once a week for 2 weeks (Q7D×2 schedule)."}, "[3]": {"tested_on": "OSC-19 subcutaneous xenograft", "assay": "Antitumor activity against OSC-19 subcutaneous xenograft model in mice as monotherapy", "details": "Q7D×2", "method": "as §1, with “squamous cell carcinoma of the head and neck (SCCHN)” for “breast cancer”, “OSC-19,” for “HCC1806,”, “DMEM/Ham's F-12 (1:1)” for “RPMI-1640”, “cells/ml” for “cells/mL”\nas §2, with “administered at doses from 0.06 mg/kg to 0.18 mg/kg” for “administered at 0.18 mg/kg”"}}, "data": [{"smiles": "C=C1C[C@@H]2CC[C@@]34C[C@H]5O[C@H]6[C@@H](O3)[C@H]3O[C@H](CC[C@@H]3O[C@H]6C5O4)CC(=O)O[C@@H]3[C@@H](C)[C@@H]4O[C@@H]5C[C@]6(C[C@@H]7O[C@]8(C[C@H](C)[C@@H]9O[C@H](CN)[C@H](O)C[C@@H]9O8)C[C@H](C)[C@@H]7O6)O[C@@H]5C[C@@H]4O[C@H]3C[C@H]3O[C@@H](CC[C@@H]1O2)C[C@@H](C)C3=C", "note": "[Compound (1)]", "values": [{"measurement": "expression level of Tenascin-C", "setting": "Tenascin-C", "result": "reduced"}, {"measurement": "antitumor activity", "setting": "[1]", "result": "tumor growth delay"}, {"measurement": "Tumor Regression (%)", "setting": "[2]", "result": 90, "unit": "%"}, {"measurement": "Tumor Regression (%)", "setting": "[3]; 0.06 mg/kg intravenously", "result": 59, "unit": "%"}, {"measurement": "Tumor Regression (%)", "setting": "[3]; 0.18 mg/kg intravenously", "result": 90, "unit": "%"}]}]}
